Data from paper PMC5829251, “NAD^+ analog reveals PARP-1 substrate-blocking mechanism and allosteric communication from catalytic center to DNA-binding domains” (Nature Communications, 2018).
Several values for one entry are separate records, joined by “and”; a condition that tells them apart may be missing. Identical values can stand only once.

Experiments:
Type in all cases: binding
PARP-1 CAT ΔHD = molecular target: T1, PARP-1 CAT ΔHD (Homo sapiens, UniProt P09874); assay: DSF, PARP-1 CAT ΔHD; settings: for TM: CAT ΔHD 5 μM, in °C (unit assumed)
T1 construct: a pET28 construct coding for PARP-1 residues 661-1011; made in house; host or cells: E. coli
T1 sequence (P09874 with tags, fused parts or gaps): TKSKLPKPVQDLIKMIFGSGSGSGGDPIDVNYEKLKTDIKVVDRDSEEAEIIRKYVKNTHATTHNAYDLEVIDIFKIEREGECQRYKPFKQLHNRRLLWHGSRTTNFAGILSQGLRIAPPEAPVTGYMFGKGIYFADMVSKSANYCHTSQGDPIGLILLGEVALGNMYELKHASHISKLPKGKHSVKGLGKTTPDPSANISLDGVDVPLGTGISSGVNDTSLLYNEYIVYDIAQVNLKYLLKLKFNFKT
Experimental: DSF experiments were performed as described, [13] using 5 µM protein, 2.5 µM DNA when indicated and various concentrations of compound (BAD, carba-NAD^+, benzamide, and ADP-ribose) as indicated in Fig. 1 and Fig. 3. Experiments were performed on a Roche LightCycler 480 RT-PCR. Reactions including DNA were performed with a 26- or 28-base pair (bp) unphosphorylated oligonucleotide for PARP-1, a 28-bp 5´-phosphorylated (5´P) oligonucleotide for PARP-2, and a 47-bp oligonucleotide including a central 5´P nick for PARP-3^13 in the following buffer: 25 mM Hepes pH 8.0, 150 mM NaCl, 1 mM EDTA, and 0.1 mM TCEP. Reactions with PARP-3 were conducted at lower ionic strength to allow binding to DNA as described (25 mM Hepes pH 8.0, 50 mM NaCl, 1 mM EDTA and 0.1 mM TCEP)[13]. ΔTM values were calculated by subtracting the TM determined for the protein in the absence of compound from the TM determined in the presence of compound. Experiments were performed in triplicate and a Boltzmann sigmoid was fit to the data to determine the TM values (KaleidaGraph).

full-length PARP-1 WT = molecular target: T2, full-length PARP-1 WT (Homo sapiens, UniProt P09874); assay: ITC, full-length PARP-1 WT with or without DNA; settings: for KD / Kd: compound 525 μM titrated, 25°C
T2 construct: Full-length PARP-1 WT (residues 1–1014) was cloned in pET28 vector; made in house; host or cells: E. coli
T2 sequence (P09874 whole entry, the tested form may be a part): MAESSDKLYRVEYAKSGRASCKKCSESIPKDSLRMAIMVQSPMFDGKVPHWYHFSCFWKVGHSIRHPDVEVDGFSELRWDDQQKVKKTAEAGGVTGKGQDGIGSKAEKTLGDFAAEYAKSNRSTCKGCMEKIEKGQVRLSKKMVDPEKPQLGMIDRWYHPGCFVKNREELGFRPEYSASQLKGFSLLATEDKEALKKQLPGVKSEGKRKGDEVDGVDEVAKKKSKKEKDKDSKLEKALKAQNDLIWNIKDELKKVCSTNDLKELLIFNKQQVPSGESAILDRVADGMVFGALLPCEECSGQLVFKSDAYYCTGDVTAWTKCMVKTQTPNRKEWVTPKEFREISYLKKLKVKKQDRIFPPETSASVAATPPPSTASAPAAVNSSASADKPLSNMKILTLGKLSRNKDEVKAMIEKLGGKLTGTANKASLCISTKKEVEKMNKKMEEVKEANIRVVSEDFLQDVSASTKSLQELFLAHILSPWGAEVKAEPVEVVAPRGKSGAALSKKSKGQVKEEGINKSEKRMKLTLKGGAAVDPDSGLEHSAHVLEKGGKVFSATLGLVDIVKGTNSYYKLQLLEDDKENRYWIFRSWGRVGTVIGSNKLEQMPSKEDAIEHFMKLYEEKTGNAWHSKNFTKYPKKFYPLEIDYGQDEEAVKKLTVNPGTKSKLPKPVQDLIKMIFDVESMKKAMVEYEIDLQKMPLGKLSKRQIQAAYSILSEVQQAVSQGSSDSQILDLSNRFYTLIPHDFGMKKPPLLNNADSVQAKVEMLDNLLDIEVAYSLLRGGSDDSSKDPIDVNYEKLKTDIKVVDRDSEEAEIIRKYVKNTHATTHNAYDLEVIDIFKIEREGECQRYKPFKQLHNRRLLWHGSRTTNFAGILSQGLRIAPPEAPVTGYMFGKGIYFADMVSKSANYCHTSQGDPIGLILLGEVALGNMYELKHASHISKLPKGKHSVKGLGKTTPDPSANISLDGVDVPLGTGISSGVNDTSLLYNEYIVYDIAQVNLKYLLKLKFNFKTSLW
Experimental: ITC experiments were performed using a MicroCal iTC200 calorimeter (GE Healthcare). BAD or benzamide at 525 μM was titrated into PARP-1 protein (50 μM for CAT WT and CAT ΔHD, 40 μM for full-length PARP-1 WT and mutants) or PARP-1 protein with DNA (20–40 μM) at 25°C. Prior to the experiment, proteins and DNA were dialyzed in 25 mM Hepes pH 8.0, 150 mM NaCl, 1 mM EDTA, and 0.1 mM TCEP. BAD and benzamide were diluted in the dialysis buffer. PARP-1/DNA complexes were assembled and incubated at RT for 30 min prior to performing the experiment. Experiments were typically designed as follows: a first injection of 0.2 μL was followed by 16 injections of 2.5 μL with a spacing of 100 s between injections. Excess heat upon each injection was integrated using an automatically adjusted base line and derived values corrected by heat of dilution. Data analysis and curve fitting were conducted using Origin 7 software. The ITC experiment for each sample was performed either two (PARP-1 WT with benzamide, PARP-1 E763/D766/D770A with benzamide, PARP-1 D766/D770A with BAD) or three times (the remaining eight samples). Table 2 lists the average KD value and stoichiometry (n) for the replicates, and the reported errors are the calculated standard deviations (representing the range of values for experiments repeated two times). We anticipate that the sub-stoichiometric n values for CAT constructs results from either the active fraction being < 100%, or the protein concentration determination being not entirely accurate. The analysis of full-length PARP-1 yielded n values around the expected value of 1.

PARP-1 WT = molecular target: T3, PARP-1 WT (Homo sapiens, UniProt P09874); assay: Fluorescence polarization DNA affinity measurement assay; settings: presence versus absence of compound
T3 construct: Full-length PARP-1 WT (residues 1–1014) was cloned in pET28 vector; made in house; host or cells: E. coli
T3 sequence (P09874 whole entry, the tested form may be a part): as above
Experimental: For the DNA competition assay, 40 nM PARP-1 WT, or PARP-1 ΔHD, was incubated with 20 nM of dumbbell DNA with a central nick carrying an internal fluorescent FAM group (5′-GCT GAG C/FAMT/T CTGGTGAAGCTCAGCTCGCGGCAGCTGGTGCTGCCGCGA-3′) for 30 min at RT in 12 mM Hepes pH 8.0, 60 mM KCl, 8 mM MgCl2, 4% glycerol, 5.7 mM beta-mercaptoethanol, 0.05 mg per ml bovine serm albumin with or without BAD or benzamide (500 μM). A competitor unlabeled DNA of the same sequence was added at 100 nM and FP was measured over time on a VictorV plate reader (Perkin Elmer). For the DNA affinity measurement assay, increasing concentrations of PARP-1 WT were incubated for 30 min at RT with 5 nM of dumbbell DNA probe carrying a nick (described above) in the absence or presence of BAD or benzamide (100 μM) in the following buffer: 12 mM Hepes pH 8.0, 250 mM NaCl, 4% glycerol, 5.7 mM beta-mercaptoethanol, 0.05 mg per ml bovine serum albumin.

[1] = Figure 1e, compound 25 µM, TM without compound 41.26
[2] = Figure 1e, compound 150 µM, TM without compound 41.26
[3] = Figure 1e, compound 750 µM, TM without compound 41.26
[4] = Figure 1e, compound 1500 µM, TM without compound 41.26

Compound	TM (PARP-1 CAT ΔHD; [1])	TM (PARP-1 CAT ΔHD; [2])	TM (PARP-1 CAT ΔHD; [3])	TM (PARP-1 CAT ΔHD; [4])	TM (PARP-1 CAT ΔHD; Figure 1d, compound 50 µM, TM without compound 41.76)	TM (PARP-1 CAT ΔHD; Figure 1d, compound 250 µM, TM without compound 41.76)	TM (PARP-1 CAT ΔHD; Figure 1d, compound 1250 µM, TM without compound 41.76)	TM increase (ΔTM) of CAT ΔHD (PARP-1 CAT ΔHD; at the highest concentration, 5 μM protein)	KD (full-length PARP-1 WT; FL WT 40 μM, without DNA)	n (stoichiometry) (full-length PARP-1 WT; FL WT with DNA)	Kd (full-length PARP-1 WT; FL WT with DNA (40 μM, 8 bp-duplex))	increase in PARP-1 affinity for a DNA single-strand break (PARP-1 WT)	change of TM of CAT ΔHD (evidence of binding) (PARP-1 CAT ΔHD; 5 μM protein, various amounts of compound)	Kd (full-length PARP-1 WT; FL WT 40 μM, without DNA)	n (stoichiometry) (full-length PARP-1 WT; FL WT, without DNA)
NC(=O)c1cccc(C2OC(COP(=O)(O)OP(=O)(O)OCC3OC(n4cnc5c(N)ncnc54)C(O)C3O)C(O)C2O)c1 (stereo not drawn) [BAD, benzamide adenine dinucleotide]	45.52	48.60	49.27	51.95	47.02	49.58	51.91	10 °C	no evidence of BAD binding	1.11 + /− 0.29	1800 nM and 1810 nM	10 fold			
NC(=O)c1ccccc1 [benzamide]	43.73	46.20	46.99	49.98					bound to benzamide in the absence of DNA			no effect	increased the TM	2320 nM	0.88 + /− 0.01
